The term IC50 denotes the concentration that inhibits the measured activity by half.

These results are taken from US9096624B2 (OSI Pharmaceuticals, LLC, priority 2009, dated 2015).

The target of test [1] is T1, FAK (Homo sapiens, UniProt Q05397). As to the kind of experiment: biochemical.
Test [2] has as its target T1, FAK. Briefly: Cell-based capture ELISA for inhibition of FAK autophosphorylation [pY397] in MiaPaCa2 cells. The procedure: Cell-Based Assays for Inhibition of FAK Autophosphorylation: MiaPaCa2 and U87MG
ELISA kit from Invitrogen (KHO0441).
Reagents Provided in Biosource FAK [pY397]
The cells were then suspended in cell assay medium.
(In general: In an ELISA, binding on a coated surface is turned into a signal by an enzyme label.)

The mark [3] stands for this setting: MIA-PaCa2 cells, + 50% mouse plasma (Table 2), read-out: Mean FAK Cell Mechanistic IC50 + 50% mP MIA-PaCa2.
Where [4] appears, read: MIA-PaCa2 cells on fibronectin, 2 h, no plasma, read-out: Mean FAK Cell Mechanistic IC50 MIA-PaCa2.
Setting [5] is: MIA-PaCa2 cells, + 50% human plasma, read-out: Mean FAK Cell Mechanistic IC50 + 50% hP MIA-PaCa2.

T1 sequence (Q05397 whole entry): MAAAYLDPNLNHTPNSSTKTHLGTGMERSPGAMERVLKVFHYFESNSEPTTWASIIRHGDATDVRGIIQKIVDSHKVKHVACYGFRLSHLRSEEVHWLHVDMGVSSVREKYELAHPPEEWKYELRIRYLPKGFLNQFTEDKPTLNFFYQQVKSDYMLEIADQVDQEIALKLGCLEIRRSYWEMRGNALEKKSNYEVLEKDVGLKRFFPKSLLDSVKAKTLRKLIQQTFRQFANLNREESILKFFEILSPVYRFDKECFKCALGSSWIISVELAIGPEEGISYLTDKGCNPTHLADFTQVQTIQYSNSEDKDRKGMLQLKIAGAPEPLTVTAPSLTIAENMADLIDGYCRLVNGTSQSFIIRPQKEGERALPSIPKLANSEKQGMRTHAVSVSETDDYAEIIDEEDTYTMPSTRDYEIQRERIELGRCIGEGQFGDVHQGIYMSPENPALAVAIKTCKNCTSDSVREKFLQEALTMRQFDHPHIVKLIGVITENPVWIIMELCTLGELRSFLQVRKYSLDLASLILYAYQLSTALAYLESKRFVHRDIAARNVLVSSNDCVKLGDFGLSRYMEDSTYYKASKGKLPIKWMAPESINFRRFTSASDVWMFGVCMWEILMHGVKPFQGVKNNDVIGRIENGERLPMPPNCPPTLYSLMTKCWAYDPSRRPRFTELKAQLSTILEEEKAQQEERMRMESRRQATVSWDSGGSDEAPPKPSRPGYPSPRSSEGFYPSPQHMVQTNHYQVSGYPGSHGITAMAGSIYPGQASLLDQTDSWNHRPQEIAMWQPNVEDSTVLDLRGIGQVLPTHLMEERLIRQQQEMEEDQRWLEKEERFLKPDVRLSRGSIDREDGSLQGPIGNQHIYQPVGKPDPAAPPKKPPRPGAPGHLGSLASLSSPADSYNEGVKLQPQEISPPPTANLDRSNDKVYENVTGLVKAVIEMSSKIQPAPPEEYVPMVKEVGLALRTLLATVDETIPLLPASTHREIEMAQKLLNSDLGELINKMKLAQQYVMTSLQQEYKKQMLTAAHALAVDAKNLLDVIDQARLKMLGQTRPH

With `CCCOP(=O)(OCCC)c1cccc(Nc2ncc(C(F)(F)F)c(NCc3cccnc3N(C)S(C)(=O)=O)n2)c1` [Example 57, dipropyl [3-({4-[({2-[methyl(methylsulfonyl)amino]pyridin-3-yl}methyl)amino]-5-(trifluoromethyl)pyrimidin-2-yl}amino)phenyl]phosphonate], the IC50 is under 1000 nM against FAK [1] and 1000 to 10000 nM at FAK [2] (setting [3]).

On to `CC(C)OP(=O)(OC(C)C)c1cccc(Nc2ncc(C(F)(F)F)c(NCc3cccnc3N(C)S(C)(=O)=O)n2)c1` [Example 58, dipropan-2-yl [3-({4-[({2-[methyl(methylsulfonyl)amino]pyridin-3-yl}methyl)amino]-5-(trifluoromethyl)pyrimidin-2-yl}amino)phenyl]phosphonate], for which the IC50 is under 1000 nM against FAK [1] and 1000 to 10000 nM at FAK [2] (setting [3]).

For the compound `CN(c1ncccc1CNc1nc(Nc2cccc(P3(=O)OCC(C)(C)CO3)c2)ncc1C(F)(F)F)S(C)(=O)=O` [Example 59, N-[3-({[2-{[3-(5,5-dimethyl-2-oxido-1,3,2-dioxaphosphinan-2-yl)phenyl]amino}-5-(trifluoromethyl)pyrimidin-4-yl]amino}methyl)pyridin-2-yl]-N-methylmethanesulfonamide], the IC50 at FAK [1] was under 1000 nM; at FAK [2] (setting [3]), 1000 to 10000 nM.

In the case of `CN(c1ncccc1CNc1nc(Nc2ccc(P3(=O)OCC(C)(C)CO3)cc2)ncc1C(F)(F)F)S(C)(=O)=O` [Example 60, N-[3-({[2-{[4-(5,5-dimethyl-2-oxido-1,3,2-dioxaphosphinan-2-yl)phenyl]amino}-5-(trifluoromethyl)pyrimidin-4-yl]amino}methyl)pyridin-2-yl]-N-methylmethanesulfonamide], the IC50 against FAK [1], at FAK [2] (setting [4]), at FAK [2] (setting [5]) and on FAK [2] (setting [3]) was under 1000 nM throughout.

For the compound `CCOP(C)(=O)Cc1ccc(Nc2ncc(C(F)(F)F)c(Nc3ccc(Br)c4c3C(=O)N(C)C4)n2)cc1` (stereo not shown) [Example 61, Ethyl [4-({4-[(7-bromo-2-methyl-3-oxo-2,3-dihydro-1H-isoindol-4-yl)amino]-5-(trifluoromethyl)pyrimidin-2-yl}amino)benzyl]methylphosphinate], the IC50 against FAK [1] is under 1000 nM; at FAK [2] (setting [4]) it was under 1000 nM; on FAK [2] (setting [5]), 1000 to 10000 nM.

`CCOP(=O)(Cc1ccc(Nc2ncc(C(F)(F)F)c(Nc3ccc(Br)c4c3C(=O)N(C)C4)n2)c(OC)c1)OCC` [Example 62, Diethyl [4-({4-[(7-bromo-2-methyl-3-oxo-2,3-dihydro-1H-isoindol-4-yl)amino]-5-(trifluoromethyl)pyrimidin-2-yl}amino)-3-methoxybenzyl]phosphonate]: the figures for the half-maximal inhibitory concentration (IC50) at FAK [1], at FAK [2] (setting [4]) and on FAK [2] (setting [5]) were under 1000 nM, under 1000 nM and 1000 to 10000 nM, respectively.

For `CCOP(C)(=O)Cc1ccc(Nc2ncc(C(F)(F)F)c(Nc3ccc(-c4cnn(C)c4)c4c3C(=O)N(C)C4)n2)cc1` (stereo not shown) [Example 63, Ethyl methyl(4-{[4-{[2-methyl-7-(1-methyl-1H-pyrazol-4-yl)-3-oxo-2,3-dihydro-1H-isoindol-4-yl]amino}-5-(trifluoromethyl)pyrimidin-2-yl]amino}benzyl)phosphinate], the IC50 at FAK [1], on FAK [2] (setting [4]) and on FAK [2] (setting [5]) was under 1000 nM each time.

For `CCOP(C)(=O)Cc1ccc(Nc2ncc(C(F)(F)F)c(Nc3ccc(-c4cnn(CCO)c4)c4c3C(=O)N(C)C4)n2)cc1` (stereo not shown) [Example 64, Ethyl (4-{[4-({7-[1-(2-hydroxyethyl)-1H-pyrazol-4-yl]-2-methyl-3-oxo-2,3-dihydro-1H-isoindol-4-yl}amino)-5-(trifluoromethyl)pyrimidin-2-yl]amino}benzyl)methylphosphinate], the IC50 at FAK [1], at FAK [2] (setting [4]) and at FAK [2] (setting [5]) was under 1000 nM each time.

As for `CCOP(C)(=O)Cc1ccc(Nc2ncc(C(F)(F)F)c(Nc3ccc(-c4cnn(C[C@@H](O)CO)c4)c4c3C(=O)N(C)C4)n2)cc1` (stereo partly drawn) [Example 65, Ethyl [4-({4-[(7-{1-[(2R)-2,3-dihydroxypropyl]-1H-pyrazol-4-yl}-2-methyl-3-oxo-2,3-dihydro-1H-isoindol-4-yl)amino]-5-(trifluoromethyl)pyrimidin-2-yl}amino)benzyl]methylphosphinate], the IC50 on FAK [1], on FAK [2] (setting [4]) and on FAK [2] (setting [5]) was under 1000 nM in each case.

Consider `CCOP(C)(=O)Cc1ccc(Nc2ncc(C(F)(F)F)c(Nc3ccc(-c4ccccc4)c4c3C(=O)N(C)C4)n2)cc1` (stereo not shown) [Example 66, Ethyl methyl[4-({4-[(2-methyl-3-oxo-7-phenyl-2,3-dihydro-1H-isoindol-4-yl)amino]-5-(trifluoromethyl)pyrimidin-2-yl}amino)benzyl]phosphinate], for which the IC50 at FAK [1] and at FAK [2] (setting [3]) was under 1000 nM each time.

As for `CCOP(C)(=O)Cc1ccc(Nc2ncc(C(F)(F)F)c(Nc3ccc(-c4cn[nH]c4)c4c3C(=O)N(C)C4)n2)cc1` (stereo not shown) [Example 67, Ethyl methyl(4-{[4-{[2-methyl-3-oxo-7-(1H-pyrazol-4-yl)-2,3-dihydro-1H-isoindol-4-yl]amino}-5-(trifluoromethyl)pyrimidin-2-yl]amino}benzyl)phosphinate], the concentration for half-maximal inhibition (IC50) on FAK [1], on FAK [2] (setting [4]) and on FAK [2] (setting [5]) was under 1000 nM each time.

With `C=C(C)c1ccc(Nc2nc(Nc3ccc(CP(C)(=O)OCC)cc3)ncc2C(F)(F)F)c2c1CN(C)C2=O` (stereo not shown) [Example 68, Ethyl methyl(4-{[4-{[2-methyl-3-oxo-7-(prop-1-en-2-yl)-2,3-dihydro-1H-isoindol-4-yl]amino}-5-(trifluoromethyl)pyrimidin-2-yl]amino}benzyl)phosphinate], the values for the IC50 on FAK [1], on FAK [2] (setting [4]) and on FAK [2] (setting [5]) were under 1000 nM, under 1000 nM and 1000 to 10000 nM, respectively.

With `CCOP(=O)(Cc1ccc(Nc2ncc(C(F)(F)F)c(Nc3ccc(-c4cnn(CCO)c4)c4c3C(=O)N(C)C4)n2)c(OC)c1)OCC` [Example 69, Diethyl (4-{[4-({7-[1-(2-hydroxyethyl)-1H-pyrazol-4-yl]-2-methyl-3-oxo-2,3-dihydro-1H-isoindol-4-yl}amino)-5-(trifluoromethyl)pyrimidin-2-yl]amino}-3-methoxybenzyl)phosphonate], the IC50 against FAK [1], at FAK [2] (setting [4]) and at FAK [2] (setting [5]) was under 1000 nM throughout.

As for `CCOP(=O)(Cc1ccc(Nc2ncc(C(F)(F)F)c(Nc3ccc(-c4cnn(C[C@H](O)CO)c4)c4c3C(=O)N(C)C4)n2)c(OC)c1)OCC` [Example 70, Diethyl [4-({4-[(7-{1-[(2S)-2,3-dihydroxypropyl]-1H-pyrazol-4-yl}-2-methyl-3-oxo-2,3-dihydro-1H-isoindol-4-yl)amino]-5-(trifluoromethyl)pyrimidin-2-yl}amino)-3-methoxybenzyl]phosphonate], the half-maximal inhibitory concentration (IC50) against FAK [1], on FAK [2] (setting [4]) and on FAK [2] (setting [5]) was under 1000 nM in each case.

`CCOP(=O)(Cc1ccc(Nc2ncc(C(F)(F)F)c(Nc3ccc(-c4cnn(C)c4)c4c3C(=O)N(C)C4)n2)c(OC)c1)OCC` [Example 71, Diethyl (3-methoxy-4-{[4-{[2-methyl-7-(1-methyl-1H-pyrazol-4-yl)-3-oxo-2,3-dihydro-1H-isoindol-4-yl]amino}-5-(trifluoromethyl)pyrimidin-2-yl]amino}benzyl)phosphonate]: the half-maximal inhibitory concentration (IC50) against FAK [1], at FAK [2] (setting [4]) and at FAK [2] (setting [5]) was under 1000 nM in each case.

For `CCOP(=O)(Cc1ccc(Nc2ncc(C(F)(F)F)c(Nc3ccc(-c4cnn(CC(C)(C)O)c4)c4c3C(=O)N(C)C4)n2)c(OC)c1)OCC` [Example 72, Diethyl (4-{[4-({7-[1-(2-hydroxy-2-methylpropyl)-1H-pyrazol-4-yl]-2-methyl-3-oxo-2,3-dihydro-1H-isoindol-4-yl}amino)-5-(trifluoromethyl)pyrimidin-2-yl]amino}-3-methoxybenzyl)phosphonate], the IC50 against FAK [1] and on FAK [2] (setting [3]) was under 1000 nM in each case.

On to `CCOP(=O)(Cc1ccc(Nc2ncc(C(F)(F)F)c(Nc3ccc(C4=CCN(C(N)=O)CC4)c4c3C(=O)N(C)C4)n2)c(OC)c1)OCC` [Example 73, Diethyl (4-{[4-{[7-(1-carbamoyl-1,2,3,6-tetrahydropyridin-4-yl)-2-methyl-3-oxo-2,3-dihydro-1H-isoindol-4-yl]amino}-5-(trifluoromethyl)pyrimidin-2-yl]amino}-3-methoxybenzyl)phosphonate], for which the concentration for half-maximal inhibition (IC50) at FAK [1] and on FAK [2] (setting [3]) was under 1000 nM throughout.

Turning to `CCOP(C)(=O)Cc1ccc(Nc2ncc(C(F)(F)F)c(Nc3ccc(C#CC(C)(C)O)c4c3C(=O)N(C)C4)n2)cc1` (stereo not shown) [Example 75], the IC50 on FAK [1], on FAK [2] (setting [4]) and on FAK [2] (setting [5]) was under 1000 nM in each case.

As for `CCOP(C)(=O)Cc1ccc(Nc2ncc(C(F)(F)F)c(Nc3ccc(C#CC(C)O)c4c3C(=O)N(C)C4)n2)cc1` (stereo not shown) [Example 76, Ethyl (4-{[4-{[7-(3-hydroxybut-1-yn-1-yl)-2-methyl-3-oxo-2,3-dihydro-1H-isoindol-4-yl]amino}-5-(trifluoromethyl)pyrimidin-2-yl]amino}benzyl)methylphosphinate], the IC50 is under 1000 nM against FAK [1], under 1000 nM on FAK [2] (setting [4]) and 1000 to 10000 nM at FAK [2] (setting [5]).

In the case of `CCOP(C)(=O)Cc1ccc(Nc2ncc(C(F)(F)F)c(Nc3ccc(C#CCO)c4c3C(=O)N(C)C4)n2)cc1` (stereo not shown) [Example 77, Ethyl (4-{[4-{[7-(3-hydroxyprop-1-yn-1-yl)-2-methyl-3-oxo-2,3-dihydro-1H-isoindol-4-yl]amino}-5-(trifluoromethyl)pyrimidin-2-yl]amino}benzyl)methylphosphinate], the half-inhibitory concentration (IC50) against FAK [1], on FAK [2] (setting [4]) and on FAK [2] (setting [5]) was under 1000 nM each time.
